Reference: patent publication US6649654B1, “Methods for identifying and using IKK inhibitors” (The Regents of the University of California, priority 1999, dated 2003)

Assays:
IKK [1] = molecular target: T1, IKK (Homo sapiens, UniProt O14920+O15111); test: Endogenous IKK activity (kinase assay) in treated, stimulated HeLa cells; assay type: cell-based; set-up: Endogenous IKK was immunoprecipitated from TNFα-stimulated HeLa cells; endogenous in cells; host or cells: HeLa; conditions: HeLa cells, 50 μM (LTB4 1 μM, 15dPGJ2 5 μM) 2 hours, TNFα 10 minutes
T1 sequence (O15111 whole entry, one chain of several): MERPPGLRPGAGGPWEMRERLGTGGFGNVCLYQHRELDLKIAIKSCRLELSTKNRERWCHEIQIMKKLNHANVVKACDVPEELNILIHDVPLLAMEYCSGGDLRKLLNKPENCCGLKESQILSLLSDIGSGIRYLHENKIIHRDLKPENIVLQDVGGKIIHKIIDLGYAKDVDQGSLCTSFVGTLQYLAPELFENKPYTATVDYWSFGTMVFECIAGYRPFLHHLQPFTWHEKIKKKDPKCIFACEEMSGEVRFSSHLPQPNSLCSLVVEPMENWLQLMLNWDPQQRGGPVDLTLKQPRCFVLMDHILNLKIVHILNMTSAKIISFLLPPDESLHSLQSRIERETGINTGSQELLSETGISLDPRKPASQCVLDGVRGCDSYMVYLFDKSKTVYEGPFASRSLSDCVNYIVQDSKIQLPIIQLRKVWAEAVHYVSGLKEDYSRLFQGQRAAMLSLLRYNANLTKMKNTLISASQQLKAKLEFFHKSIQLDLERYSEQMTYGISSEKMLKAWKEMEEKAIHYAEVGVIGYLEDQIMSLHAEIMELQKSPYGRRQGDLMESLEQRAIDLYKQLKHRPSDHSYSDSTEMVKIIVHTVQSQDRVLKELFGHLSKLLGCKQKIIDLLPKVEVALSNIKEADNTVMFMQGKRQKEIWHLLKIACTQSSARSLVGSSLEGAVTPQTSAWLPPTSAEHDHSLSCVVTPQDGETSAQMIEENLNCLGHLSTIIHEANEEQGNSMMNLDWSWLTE
T1 sequence (Q9Y6K9 whole entry partner, one chain of several): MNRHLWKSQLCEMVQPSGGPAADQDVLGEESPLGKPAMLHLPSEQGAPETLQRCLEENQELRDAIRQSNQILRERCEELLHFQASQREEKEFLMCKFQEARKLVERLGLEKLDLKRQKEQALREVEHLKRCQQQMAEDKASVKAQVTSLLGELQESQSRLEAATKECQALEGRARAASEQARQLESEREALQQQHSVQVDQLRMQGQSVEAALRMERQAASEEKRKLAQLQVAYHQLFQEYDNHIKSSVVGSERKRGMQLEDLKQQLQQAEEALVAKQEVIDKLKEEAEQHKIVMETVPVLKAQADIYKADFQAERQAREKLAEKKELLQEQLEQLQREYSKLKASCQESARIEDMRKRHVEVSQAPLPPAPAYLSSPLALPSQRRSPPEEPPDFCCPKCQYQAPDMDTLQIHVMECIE
Description: (§1) Cells used in the experiments described herein were cultured in either RPMI 1640 (Jurkat cells) or DMEM (HeLa and COS cells), supplemented with 10% FBS and antibiotics. Cells were stimulated with either 25 ng/ml TPA, 20 ng/ml recombinant TNFα, or 10 ng/ml interleukin 1β (Sigma). PGA1, 15dPGJ2, T×B2, LTB4, AA and other PGs (Cayman) dissolved in ethanol were used as well, as known in the art (See e.g., Rossi et al., 94:746-750 [1997]). Controls received equal amounts of ethanol. Transfections were performed using Lipofectamine Plus (GIBCO) for HeLa and COS cells and DEAE-dextran (Sigma) for Jurkat cells. Xpress-tagged NIK, Xpress-tagged MEKK1, HA-tagged IKKα, and HA-tagged IKKβ were also used (See e.g., Zandi et al., Science 281:1360-1363 [1998]; and Delhase et al., Science 284:309-313 [1999]). COX2 and cPLA2 expression vectors were obtained from Dr. L. Feng (See also, Hirose et al., J. Am. Soc. Nephrol., 9:408-416 [1998]). PGD synthase was cloned from HT29 colon carcinoma cell line cDNA by PCR and subcloned into a pCDNA3 vector. Cells were lysed in buffer B (50 mM Tris-HCl, pH 7.5, 400 mM NaCl, 1 mM EDTA, 1 mM EGTA, 1% Triton, 0.5% NP-40, 10% glycerol, and supplemented with 20 mM β-glycerophosphate, 10 mM PNPP, […] 1 mM PMSF, 20 μg/ml aprotinin, 2.5 μg/ml leupeptin, 8.3 μg/ml bestatin, 1.7 μg/ml pepstatin, and 2 mM DTT).
(§2) Cell lysates were incubated with anti-IKKα (Pharmingen), anti-HA (12CA5; Pharmingen), anti-JNK1 (333.8; Pharmingen), or anti-p38 (New England Biolabs) for 2 hours. Then, 15 μl protein A-Sepharose (Sigma) were added and the mixture was allowed to incubate for 1 hour. After extensive washing, kinase assays were performed as known in the art (See e.g., DiDonato et al., Nature 388:548-554 [1997]). Endogenous IKK, HA-tagged IKKα, endogenous JNK1, and p38 activities were determined with GST-1κBα(1-54), GST-c-Jun(1-79), and GST-ATF2 as substrates.
(§3) In this Example, experiments to determined the effects of arachidonic acid and its metabolites on IKK activity in vivo and in vitro are described. HeLa cells were treated with 50 μM AA, PGA1, PGB2, PGD2, PGE1, PGE2, PGF1α, or thromboxane B2 (T×B2), 1 μM LTB4, or 5 μM 15dPGJ2, for 2 hours in RPMI containing 10% FCS, and stimulated with TNFα for 10 minutes. Cell lysates were then assayed for endogenous IKK activity and recovery. In this FIGURE, “control” indicates unstimulated cells, and “-” indicates treatment with diluent alone. In addition, IKK was immunoprecipitated from TNFα-stimulated HeLA cells and incubated in vitro with 100 μM AA, PGA1, PGB2, PGD2, PGE1, PGE2, PGF1α, or T×B2, 2 μM LTB4 or 10 μM 15dPGJ2, followed by kinase assay and immunoblot analysis. In this FIGURE, “control” indicates to unstimulated cells, and “-”indicates 1% ethanol.

IKK [2] = molecular target: T1, IKK; test: In vitro kinase assay of IKK immunoprecipitated from TNFα-stimulated HeLa cells; assay type: biochemical; set-up: Endogenous IKK was immunoprecipitated from TNFα-stimulated HeLa cells; endogenous in cells; host or cells: HeLa; conditions: immunoprecipitated IKK, 100 μM (LTB4 2 μM, 15dPGJ2 10 μM)
Description: as §2
Endogenous IKK was immunoprecipitated from TNFα-stimulated HeLa cells and the kinase activity determined in the presence of different concentrations of PGA1 (the results of which are shown in FIG. 2B) or 15dPGJ2 (the results of which are shown in FIG. 2C).
as §3
Many protein kinase inhibitors compete with binding of ATP, but preincubation in the presence of increasing concentrations of ATP had no effect on inhibition of IKKβ by 15dPGJ2, as indicated in FIG. 6A. […] The pellets were rinsed and kinase activity was measured.

IKKβ = molecular target: T2, IKKβ (Homo sapiens, UniProt O14920); set-up: FLAG; made in house; host or cells: Sf9 (baculovirus); conditions: high concentrations; Yin et al.; cited from earlier work
T2 sequence (O14920 1-756): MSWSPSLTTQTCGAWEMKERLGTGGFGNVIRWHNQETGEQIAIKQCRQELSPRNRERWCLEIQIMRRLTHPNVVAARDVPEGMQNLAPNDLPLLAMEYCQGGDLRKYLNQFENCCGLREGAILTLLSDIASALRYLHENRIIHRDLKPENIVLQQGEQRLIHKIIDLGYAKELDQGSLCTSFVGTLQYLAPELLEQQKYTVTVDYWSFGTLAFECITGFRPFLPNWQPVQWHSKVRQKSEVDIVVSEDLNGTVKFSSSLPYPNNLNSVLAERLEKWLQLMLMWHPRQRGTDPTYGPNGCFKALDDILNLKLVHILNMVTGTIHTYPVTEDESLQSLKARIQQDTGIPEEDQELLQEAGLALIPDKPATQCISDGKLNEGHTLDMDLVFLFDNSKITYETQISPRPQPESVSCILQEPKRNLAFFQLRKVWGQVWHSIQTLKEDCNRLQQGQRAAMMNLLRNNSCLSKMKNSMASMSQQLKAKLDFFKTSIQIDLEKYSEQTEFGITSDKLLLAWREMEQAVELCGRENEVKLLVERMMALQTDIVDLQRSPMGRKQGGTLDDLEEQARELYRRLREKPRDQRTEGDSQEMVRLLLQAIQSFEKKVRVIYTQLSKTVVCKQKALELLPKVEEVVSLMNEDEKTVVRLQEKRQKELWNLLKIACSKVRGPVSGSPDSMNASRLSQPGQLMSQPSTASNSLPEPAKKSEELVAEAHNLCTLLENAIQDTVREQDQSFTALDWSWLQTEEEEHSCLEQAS

NF-κB = NF-κB activation / DNA-binding activity by EMSA in stimulated HeLa cells; assay type: cell-based, human; conditions: HeLa cells stimulated with TNFα (PGA1: IL-1 or TNFα)
Description: as §1
Aliquots of total extracts (15 μg protein) in buffer B were incubated with a ^32P-labeled κB DNA, followed by analysis of DNA-binding activities by EMSA on 4% PAGE gels, as known in the art (See, Rossi et al., supra). Specificity of protein-DNA complexes was verified by supershift with polyclonal antibodies specific for p65 (Rel A).

| SMILES | effect on IKK activity in vivo (cells), FIG. 5A (IKK [1]) | effect on IKK activity in vitro, FIG. 5B (IKK [2]) | inhibition of IKKβ (IKKβ) | effect on NF-κB activation (NF-κB) |
| --- | --- | --- | --- | --- |
| CCCCC/C=C\C/C=C\C/C=C\C/C=C\CCCC(=O)O [Arachidonic acid, arachidonic acid] | ineffective | ineffective | – | – |
| CCCCC[C@H](O)/C=C/C1=C(C/C=C\CCCC(=O)O)C(=O)CC1 [PGB2] | ineffective | ineffective | – | – |
| CCCCC[C@H](O)/C=C/[C@H]1C(=O)C[C@H](O)[C@@H]1C/C=C\CCCC(=O)O [PGD2] | ineffective | ineffective | – | – |
| CCCCC[C@H](O)/C=C/[C@H]1[C@H](O)CC(=O)[C@@H]1CCCCCCC(=O)O [PGE1] | ineffective | ineffective | – | – |
| CCCCC[C@H](O)/C=C/[C@H]1[C@H](O)CC(=O)[C@@H]1C/C=C\CCCC(=O)O [PGE2] | ineffective | ineffective | – | – |
| CCCCC[C@H](O)/C=C/[C@@H]1[C@@H](CCCCCCC(=O)O)[C@@H](O)C[C@H]1O [PGF1α] | ineffective | ineffective | – | – |
| CC(=O)Oc1ccccc1C(=O)O [aspirin] | – | – | inhibited | – |
| CCCCC/C=C\C[C@@H](O)/C=C/C=C/C=C\[C@@H](O)CCCC(=O)O [leukotriene B4] | ineffective | ineffective | – | – |
| CCCCC[C@H](O)/C=C/[C@H]1OC(O)C[C@H](O)[C@@H]1C/C=C\CCCC(=O)O (stereo partly drawn) [thromboxane B2] | ineffective | ineffective | – | – |
| Cc1c(C)c2c(c(C)c1O)CCC(C)(COc1ccc(CC3SC(=O)NC3=O)cc1)O2 (stereo not drawn) [troglitazone, reference compound] | – | – | – | does not inhibit |
